Experimental data: US10273544B2, “Methods for predicting likelihood of responding to treatment” (Dana-Farber Cancer Institute, Inc., priority 2010, dated 2019)

Columns and labels:
LNCaP cells [1] = assay: DHEAS uptake assay in LNCaP cells (mock transfected; transfected cells overall); type: cell-based
Procedure: The sensitivity of the kit is 5 ng/ml. […] Samples were tested in triplicate.

SLCO2B1-312Arg = biological target: T1, SLCO2B1-312Arg (Homo sapiens, UniProt O94956); assay: DHEAS uptake assay in LNCaP cells transfected with SLCO2B1-312Arg; conditions: read-out: best-fit Km for DHEAS uptake; SLCO2B1-312Arg variant, nonlinear regression
T1 sequence (O94956 1-709 R312Q): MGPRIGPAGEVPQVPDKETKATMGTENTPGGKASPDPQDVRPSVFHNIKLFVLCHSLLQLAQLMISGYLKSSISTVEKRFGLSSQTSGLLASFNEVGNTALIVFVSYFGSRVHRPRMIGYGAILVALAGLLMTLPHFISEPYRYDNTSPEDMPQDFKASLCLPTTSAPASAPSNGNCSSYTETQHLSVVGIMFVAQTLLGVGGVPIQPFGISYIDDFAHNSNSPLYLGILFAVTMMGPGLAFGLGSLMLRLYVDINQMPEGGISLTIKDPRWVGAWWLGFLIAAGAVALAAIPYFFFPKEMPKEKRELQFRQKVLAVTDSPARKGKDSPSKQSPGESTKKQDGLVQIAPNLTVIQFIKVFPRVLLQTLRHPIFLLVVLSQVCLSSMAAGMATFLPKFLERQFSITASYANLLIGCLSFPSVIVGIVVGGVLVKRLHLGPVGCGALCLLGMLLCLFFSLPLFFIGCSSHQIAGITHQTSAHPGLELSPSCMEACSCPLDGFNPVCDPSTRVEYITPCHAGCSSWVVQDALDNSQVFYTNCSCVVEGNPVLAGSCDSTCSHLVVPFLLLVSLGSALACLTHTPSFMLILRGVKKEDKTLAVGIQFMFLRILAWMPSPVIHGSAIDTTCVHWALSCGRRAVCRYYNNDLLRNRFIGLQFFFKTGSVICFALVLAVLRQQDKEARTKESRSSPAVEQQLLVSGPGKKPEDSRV
Source text: (§1) Two full-length SLCO2B1 cDNAs, SLCO2B1-312Gln (having a G at the position 935) and SLCO2B1-312Arg (having an A at position 935), were cloned into the pCMV6-XL4 vector (OriGene Technologies, Rockville, Md.). The SLCO2B1 935G>A nucleotide exchange was introduced into the cDNA using the QuikChange Site-Directed Mutagenesis kit (Stratagene, La Jolla, Calif.). Primers used for the mutagenesis were 5′-[…]-3′ (SEQ ID NO:1) and 5′-[…]-3′ (SEQ ID NO:2) (underlined sequences encode 312Arg).
(§2) LNCaP cells were maintained in RPMI 1640 supplemented with 10% fetal bovine serum (FBS). Twenty-four hours before transfection, 2×10^5 cells were seeded in 12-well plates using Phenol-Red free RPMI 1640 supplemented with 10% charcoal-stripped FBS. LNCaP cells were transiently transfected with pCMV-SLCO2B1-312Gln, pCMV-SLCO2B1-312Arg, or pCMV6-XL4 empty vector using Lipofectamine^2000 according to the manufacturer's instructions.
(§3) The enzyme immunoassay test is based on the competition that occurs between an unlabeled antigen (present in standards, control and samples) and an enzyme-labeled antigen (conjugate) for a limited number of antibody binding sites on the microwell plate. The sensitivity of the kit is 5 ng/ml.

LNCaP cells [2] = assay: Cell proliferation, WST-1 assay, LNCaP; type: cell-based; conditions: 100 μM DHEAS, wild type LNCaP, androgen-depleted medium
Procedure: Cell proliferation was determined using a WST-1 kit (Roche, Indianapolis, Ind.). […] Tetrazolium salt cell proliferation assay then was carried out at different days after transfection, following the manufacturer's instructions.

SLCO2B1-312Gln = biological target: T2, SLCO2B1-312Gln (Homo sapiens, UniProt O94956, R312Q); assay: DHEAS uptake assay in LNCaP cells transfected with SLCO2B1-312Gln; conditions: read-out: best-fit Km for DHEAS uptake; SLCO2B1-312Gln variant, nonlinear regression
T2 sequence (O94956 1-709 R312Q): T1 sequence (O94956 1-709 R312Q)
Source text: as §1, §2, §3

PSA = assay: AR mediated PSA expression by quantitative RT-PCR; type: cell-based
Procedure: (§4) Total RNA was isolated from cells using TRIzol reagent (Invitrogen, Carlsbad, Calif.) and then converted to cDNA using High Capacity cDNA Reverse Transcription kit (Applied Biosystems, Foster City, Calif.). The expression levels of SLCO2B1 and GAPDH were measured using a standard TaqMan PCR kit protocol. Experiments were carried out in triplicate for each data point. Real-time PCR primers and probe sets were inventoried products of Applied Biosystem (Assay ID: Hs00200670_m1 and Hs02758991_g1).
(§5) The expression levels of AR and PSA were measured using a standard TaqMan PCR kit protocol (Hs02576345_m1 and Hs00171172_m1) as described in Example 3.

AR = AR expression by quantitative RT-PCR; type: cell-based; conditions: LNCaP and LAPC4 cell lines
Procedure: as §4, §5

C[C@]12CC[C@H](OS(=O)(=O)O)CC1=CC[C@@H]1[C@@H]2CC[C@]2(C)C(=O)CC[C@@H]12 [DHEAS, sulfated dehydroepiandrosterone]
uptake of DHEAS (LNCaP cells [1]; 100 μM DHEAS, pCMV6-XL4 vector (mock) transfected LNCaP cells): 51.66±7.44 pmol/mg protein | incubation time at which DHEAS uptake reached maximum levels (LNCaP cells [1]; 100 μM DHEAS, various transfected LNCaP cells): 1 h | DHEAS concentration at which uptake saturation is reached (LNCaP cells [1]; SLCO2B1 variant transfected LNCaP cells): 60 to 100 µM | Km (SLCO2B1-312Arg): 13.7 µM | increase of growth rate (LNCaP cells [2]): about 1.4 fold | Km (SLCO2B1-312Gln): 17.7 µM | up-regulation of PSA expression, SLCO2B1-Gln cells compared to SLCO2B1-Arg cells (PSA; 100 μM DHEAS, LAPC-4 cells): 1.48 fold | effect of increasing DHEAS level on PSA expression (PSA; wild type LNCaP and LAPC-4 cell lines and cells transfected with SLCO2B1): up-regulated PSA expression | effect of DHEAS exposure on AR mRNA levels (AR): increased AR mRNA levels
